Measured values taken from PubChem BioAssay AID2060623 (Molecular Pharmacology Branch, DTP, NCI, 2025).
Values joined by “and” are separate entries in the source; they are usually repeats but may differ in a detail not shown here. Equal entries are not always repeated.

Tested on: 227483-062-R1-J1-PDC complex spheroids with HUVEC/MSC, viability
Assay: Anticancer human tumor 227483-062-R1-J1-PDC patient-derived pancreatic carcinoma cell line growth inhibition [CLK]
Details: for viability, T/C: stronger effect = lower value
Summary of the method: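 Multi-cell-type spheroids combined patient-derived tumor cells with HUVEC endothelial cells and human mesenchymal stem cells. Paired agents were dosed in half-log steps down from about clinical Cmax, or from 10 microM where Cmax was unknown.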

[1] = curve of first compound, second compound 0.0316 µM
[2] = curve of first compound, second compound 0.1 µM
[3] = curve of first compound, second compound 0.316 µM
[4] = curve of first compound, second compound 1 µM
[5] = curve of first compound, second compound 3.16 µM
[6] = curve of first compound, second compound 10 µM
[7] = second compound 0.0316 µM, first compound 0.0316 µM
[8] = second compound 0.0316 µM, first compound 0.1 µM
[9] = second compound 0.0316 µM, first compound 0.316 µM
[10] = second compound 0.0316 µM, first compound 1 µM
[11] = second compound 0.1 µM, first compound 0.0316 µM
[12] = second compound 0.1 µM, first compound 0.1 µM
[13] = second compound 0.1 µM, first compound 0.316 µM
[14] = second compound 0.1 µM, first compound 1 µM
[15] = second compound 0.316 µM, first compound 0.0316 µM
[16] = second compound 0.316 µM, first compound 0.1 µM
[17] = second compound 0.316 µM, first compound 0.316 µM
[18] = second compound 0.316 µM, first compound 1 µM
[19] = second compound 1 µM, first compound 0.0316 µM
[20] = second compound 1 µM, first compound 0.1 µM
[21] = second compound 1 µM, first compound 0.316 µM
[22] = second compound 1 µM, first compound 1 µM
[23] = second compound 3.16 µM, first compound 0.0316 µM
[24] = second compound 3.16 µM, first compound 0.1 µM
[25] = second compound 3.16 µM, first compound 0.316 µM
[26] = second compound 3.16 µM, first compound 1 µM
[27] = second compound 10 µM, first compound 0.0316 µM
[28] = second compound 10 µM, first compound 0.1 µM
[29] = second compound 10 µM, first compound 0.316 µM
[30] = second compound 10 µM, first compound 1 µM
[31] = second compound 0.0316 µM, first compound 3.16 µM
[32] = second compound 0.0316 µM, first compound 10 µM
[33] = second compound 0.1 µM, first compound 3.16 µM
[34] = second compound 0.1 µM, first compound 10 µM
[35] = second compound 0.316 µM, first compound 3.16 µM
[36] = second compound 0.316 µM, first compound 10 µM
[37] = second compound 1 µM, first compound 3.16 µM
[38] = second compound 1 µM, first compound 10 µM
[39] = second compound 3.16 µM, first compound 3.16 µM
[40] = second compound 3.16 µM, first compound 10 µM
[41] = second compound 10 µM, first compound 3.16 µM
[42] = second compound 10 µM, first compound 10 µM
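Also: spheroids exposed to compounds for seven days before readout.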
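For viability, T/C in this document: percent of DMSO vehicle control luminescence as 100% viability.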

COc1c(OCCCN2CCOCC2)ccc2c3n(c(=NC(=O)c4cnc(N)nc4)nc12)CCN3 + CN1CCN(c2cc(C(=O)Nc3cc4cc(-c5cnn(C)c5)ccc4cn3)ccn2)CC1
IC50 [1]: 0.194 µM
IC50 [2]: 0.025 µM
IC50 [3]: < 0.00316 µM
IC50 [4]: < 0.00316 µM
IC50 [5]: < 0.00316 µM
IC50 [6]: < 0.00316 µM
viability, T/C (second compound 0.0316 µM, first compound 0.00316 µM): 114%
viability, T/C (second compound 0.0316 µM, first compound 0.01 µM): 96.6%
viability, T/C [7]: 74.2%
viability, T/C [8]: 60.9%
viability, T/C [9]: 43.3%
viability, T/C [10]: 27.8%
viability, T/C (second compound 0.1 µM, first compound 0.00316 µM): 60.1%
viability, T/C (second compound 0.1 µM, first compound 0.01 µM): 65%
viability, T/C [11]: 41%
viability, T/C [12]: 38.8%
viability, T/C [13]: 23.2%
viability, T/C [14]: 16.7%
viability, T/C (second compound 0.316 µM, first compound 0.00316 µM): 6.51%
viability, T/C (second compound 0.316 µM, first compound 0.01 µM): 6.64%
viability, T/C [15]: 5.96%
viability, T/C [16]: 6.61%
viability, T/C [17]: 5.11%
viability, T/C [18]: 4.05%
viability, T/C (second compound 1 µM, first compound 0.00316 µM): 3.87%
viability, T/C (second compound 1 µM, first compound 0.01 µM): 1.44%
viability, T/C [19]: 1.35%
viability, T/C [20]: 1.23%
viability, T/C [21]: 1.21%
viability, T/C [22]: 1.6%
viability, T/C (second compound 3.16 µM, first compound 0.00316 µM): 2.64%
viability, T/C (second compound 3.16 µM, first compound 0.01 µM): 2.53%
viability, T/C [23]: 2.97%
viability, T/C [24]: 1.79%
viability, T/C [25]: 1.84%
viability, T/C [26]: 1.94%
viability, T/C (second compound 10 µM, first compound 0.00316 µM): 3.49%
viability, T/C (second compound 10 µM, first compound 0.01 µM): 3.33%
viability, T/C [27]: 1.42%
viability, T/C [28]: 1.13%
viability, T/C [29]: 3.58%
viability, T/C [30]: 1.55%

Nc1ccccc1NC(=O)c1ccc(CNC(=O)OCc2cccnc2)cc1 + CN1CCN(c2cc(C(=O)Nc3cc4cc(-c5cnn(C)c5)ccc4cn3)ccn2)CC1
IC50 [1]: > 10 µM
IC50 [2]: 1.04 µM
IC50 [3]: < 0.0316 µM
IC50 [4]: < 0.0316 µM
IC50 [5]: < 0.0316 µM
IC50 [6]: < 0.0316 µM
viability, T/C [7]: 106%
viability, T/C [8]: 108%
viability, T/C [9]: 107%
viability, T/C [10]: 126%
viability, T/C [31]: 131%
viability, T/C [32]: 51.6%
viability, T/C [11]: 63.7%
viability, T/C [12]: 76%
viability, T/C [13]: 57.4%
viability, T/C [14]: 48.6%
viability, T/C [33]: 36.9%
viability, T/C [34]: 17.1%
viability, T/C [15]: 4.44%
viability, T/C [16]: 6.25%
viability, T/C [17]: 7.44%
viability, T/C [18]: 3.95%
viability, T/C [35]: 1.6%
viability, T/C [36]: 1.34%
viability, T/C [19]: 2.7%
viability, T/C [20]: 1.53%
viability, T/C [21]: 1.99%
viability, T/C [22]: 2.47%
viability, T/C [37]: 1.45%
viability, T/C [38]: 1.58%
viability, T/C [23]: 3.26%
viability, T/C [24]: 4.66%
viability, T/C [25]: 2.26%
viability, T/C [26]: 2.68%
viability, T/C [39]: 2.71%
viability, T/C [40]: 2.41%
viability, T/C [27]: 3.24%
viability, T/C [28]: 1.86%
viability, T/C [29]: 2.94%
viability, T/C [30]: 2.31%
viability, T/C [41]: 2.71%
viability, T/C [42]: 1.85%

CCN1CCN(Cc2ccc(Nc3ncc(F)c(-c4cc(F)c5nc(C)n(C(C)C)c5c4)n3)nc2)CC1
viability, T/C (compound 0.00316 µM): 93.6% and 83.6%
viability, T/C (compound 0.01 µM): 110% and 94.8%
viability, T/C (compound 0.0316 µM): 92.8% and 79.4%
viability, T/C (compound 0.1 µM): 98.2% and 76.2%
viability, T/C (compound 0.316 µM): 95.1% and 73.4%
viability, T/C (compound 1 µM): 88.3% and 82%
IC50 (curve of compound): > 1 µM

CCCS(=O)(=O)Nc1ccc(F)c(C(=O)c2c[nH]c3ncc(-c4ccc(Cl)cc4)cc23)c1F + CN1CCN(c2cc(C(=O)Nc3cc4cc(-c5cnn(C)c5)ccc4cn3)ccn2)CC1
IC50 [1]: > 10 µM
IC50 [2]: 5.27 µM
IC50 [3]: < 0.0316 µM
IC50 [4]: < 0.0316 µM
IC50 [5]: < 0.0316 µM
IC50 [6]: < 0.0316 µM
viability, T/C [7]: 115%
viability, T/C [8]: 98%
viability, T/C [9]: 92.6%
viability, T/C [10]: 111%
viability, T/C [31]: 113%
viability, T/C [32]: 98.8%
viability, T/C [11]: 59.5%
viability, T/C [12]: 63.6%
viability, T/C [13]: 62.2%
viability, T/C [14]: 95.5%
viability, T/C [33]: 57.5%
viability, T/C [34]: 32.8%
viability, T/C [15]: 5.7%
viability, T/C [16]: 6.53%
viability, T/C [17]: 5.51%
viability, T/C [18]: 4.08%
viability, T/C [35]: 8.45%
viability, T/C [36]: 5.43%
viability, T/C [19]: 4.51%
viability, T/C [20]: 1.83%
viability, T/C [21]: 3.28%
viability, T/C [22]: 1.8%
viability, T/C [37]: 2.28%
viability, T/C [38]: 2.25%
viability, T/C [23]: 3.73%
viability, T/C [24]: 4.36%
viability, T/C [25]: 3.99%
viability, T/C [26]: 4.7%
viability, T/C [39]: 5.81%
viability, T/C [40]: 4.4%
viability, T/C [27]: 4.02%
viability, T/C [28]: 2.72%
viability, T/C [29]: 2.7%
viability, T/C [30]: 3.39%
viability, T/C [41]: 3.28%
viability, T/C [42]: 2.76%

C#Cc1c(F)ccc2cc(O)cc(-c3ncc4c(N5CC6CCC(C5)N6)nc(OCC56CCCN5CC(F)C6)nc4c3F)c12 (stereo not drawn)
viability, T/C (compound 0.0316 µM): 102% and 90.9%
viability, T/C (compound 0.1 µM): 93.7% and 102%
viability, T/C (compound 0.316 µM): 120% and 105%
viability, T/C (compound 1 µM): 130% and 104%
viability, T/C (compound 3.16 µM): 106% and 124%
viability, T/C (compound 10 µM): 98.6% and 78.4%
IC50 (curve of compound): > 10 µM

COc1ccc([C@@H](O)c2cc(-c3ncnc4cc(N5CCOCC5)ccc34)c(F)cc2Cl)nn1
viability, T/C (compound 0.0316 µM): 102% and 90.1%
viability, T/C (compound 0.1 µM): 101% and 86%
viability, T/C (compound 0.316 µM): 94.7% and 86.4%
viability, T/C (compound 1 µM): 95.4% and 98.6%
viability, T/C (compound 3.16 µM): 92.6% and 80.2%
viability, T/C (compound 10 µM): 92.5% and 71%
IC50 (curve of compound): > 10 µM

Nc1ccccc1NC(=O)c1ccc(CNC(=O)OCc2cccnc2)cc1
viability, T/C (compound 0.0316 µM): 102% and 79.6%
viability, T/C (compound 0.1 µM): 107% and 81.1%
viability, T/C (compound 0.316 µM): 116% and 94.4%
viability, T/C (compound 1 µM): 121% and 101%
viability, T/C (compound 3.16 µM): 135% and 104%
viability, T/C (compound 10 µM): 87.6% and 71.5%
IC50 (curve of compound): > 10 µM

CC(=O)O[C@H]1C(=O)[C@@]2(C)[C@H]([C@H](OC(=O)c3ccccc3)[C@]3(O)C[C@H](OC(=O)[C@H](O)[C@@H](NC(=O)c4ccccc4)c4ccccc4)C(C)=C1C3(C)C)[C@]1(OC(C)=O)CO[C@@H]1C[C@@H]2O
viability, T/C (compound 0.0316 µM): 37.1% and 25.6%
viability, T/C (compound 0.1 µM): 28.5% and 24%
viability, T/C (compound 0.316 µM): 28.2% and 29.5%
viability, T/C (compound 1 µM): 37.5% and 31.8%
viability, T/C (compound 3.16 µM): 50.2% and 38.9%
viability, T/C (compound 10 µM): 60.8% and 52.3%
IC50 (curve of compound): < 0.0316 µM

COc1cccc2c1C(=O)c1c(O)c3c(c(O)c1C2=O)CC(O)(C(=O)CO)CC3OC1CC(N)C(O)C(C)O1 (stereo not drawn) + CN1CCN(c2cc(C(=O)Nc3cc4cc(-c5cnn(C)c5)ccc4cn3)ccn2)CC1
IC50 [1]: 0.18 µM
IC50 [2]: 0.0734 µM
IC50 [3]: < 0.0316 µM
IC50 [4]: < 0.0316 µM
IC50 [5]: < 0.0316 µM
IC50 [6]: < 0.0316 µM
viability, T/C [7]: 84.1%
viability, T/C [8]: 68%
viability, T/C [9]: 32.8%
viability, T/C [10]: 12.8%
viability, T/C [31]: 2.47%
viability, T/C [32]: 10.4%
viability, T/C [11]: 64.5%
viability, T/C [12]: 44.6%
viability, T/C [13]: 17.3%
viability, T/C [14]: 8.44%
viability, T/C [33]: 2.6%
viability, T/C [34]: 10.8%
viability, T/C [15]: 5.51%
viability, T/C [16]: 5.14%
viability, T/C [17]: 1.16%
viability, T/C [18]: 1.51%
viability, T/C [35]: 3.05%
viability, T/C [36]: 9.1%
viability, T/C [19]: 1.69%
viability, T/C [20]: 1.91%
viability, T/C [21]: 2.92%
viability, T/C [22]: 4.33%
viability, T/C [37]: 3.24%
viability, T/C [38]: 11%
viability, T/C [23]: 5.16%
viability, T/C [24]: 2.78%
viability, T/C [25]: 2.53%
viability, T/C [26]: 3.22%
viability, T/C [39]: 3.62%
viability, T/C [40]: 7.06%
viability, T/C [27]: 3.68%
viability, T/C [28]: 1.75%
viability, T/C [29]: 1.37%
viability, T/C [30]: 1.43%
viability, T/C [41]: 1.53%
viability, T/C [42]: 1.26%
